Measured values reported in article PMC3623729 (Journal of medicinal chemistry, 2013).
“Also recorded” adds a separate entry of the source. Where a name gives a salt, the structure may show the parent alone.

Biological target: T1, human RXRα (Homo sapiens, UniProt P19793)
T1 sequence (P19793 1-462): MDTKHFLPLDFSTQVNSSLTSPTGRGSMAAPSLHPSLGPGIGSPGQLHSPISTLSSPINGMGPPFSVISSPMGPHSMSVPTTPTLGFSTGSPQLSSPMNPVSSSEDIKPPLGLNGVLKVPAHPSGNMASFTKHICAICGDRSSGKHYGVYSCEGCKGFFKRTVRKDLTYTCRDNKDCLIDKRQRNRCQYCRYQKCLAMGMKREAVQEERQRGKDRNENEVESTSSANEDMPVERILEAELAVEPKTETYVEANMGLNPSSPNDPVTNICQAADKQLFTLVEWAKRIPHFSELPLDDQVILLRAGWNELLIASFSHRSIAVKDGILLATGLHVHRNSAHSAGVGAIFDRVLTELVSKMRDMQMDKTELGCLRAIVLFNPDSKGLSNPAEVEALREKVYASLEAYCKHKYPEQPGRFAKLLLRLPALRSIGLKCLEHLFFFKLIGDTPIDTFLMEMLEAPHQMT
Experiment: RXRE-luciferase reporter gene assay
Format: cell-based
Conditions: for Max IR: maximum induction ratio observed: compounds tested at variable concentrations

| Structure (SMILES) | RXR activity in words (active / inactive) | Max IR: maximum induction ratio observed |
| --- | --- | --- |
| Cn1c2c(c3ccc(CC(=O)O)cc3c1=O)C(=O)c1ccccc1-2 [Compound 4, 2-(6-Methyl-5,11-dioxo-6,11-dihydro-5H-indeno[1,2-c]isoquinolin-3-yl)acetic Acid] | inactive | – |
| Cn1c2c(c3ccc(/C=C/C#N)cc3c1=O)C(=O)c1ccccc1-2 [Compound 11, (E)-3-(6-Methyl-5,11-dioxo-6,11-dihydro-5H-indeno[1,2-c]isoquinolin-3-yl)acrylonitrile] | inactive | – |
| COC(=O)/C=C/c1ccc2c3c(n(C)c(=O)c2c1)-c1ccccc1C3=O [Compound 12, (E)-Methyl 3-(6-Methyl-5,11-dioxo-6,11-dihydro-5H-indeno[1,2-c]isoquinolin-3-yl)acrylate] | inactive | – |
| Cn1c2c(c3ccc(/C=C/C(=O)O)cc3c1=O)C(=O)c1ccccc1-2 [Compound 13, (E)-3-(6-Methyl-5,11-dioxo-6,11-dihydro-5H-indeno[1,2-c]isoquinolin-3-yl)acrylic Acid] | inactive | – |
| Cn1c2c(c3ccc(CCCC(=O)O)cc3c1=O)C(=O)c1ccccc1-2 [Compound 19, 5-(6-Methyl-5,11-dioxo-6,11-dihydro-5H-indeno[1,2-c]isoquinolin-3-yl)butanoic Acid] | inactive | – |
| Cn1c2c(c3ccc(C(=O)O)cc3c1=O)C(=O)c1ccccc1-2 [Compound 30, 6-Methyl-5,11-dioxo-6,11-dihydro-5H-indeno[1,2-c]isoquinoline-3-carboxylic Acid] | inactive | – |
| Cn1c2c(c3ccc(C(N)=O)cc3c1=O)C(=O)c1ccccc1-2 [Compound 31, 6-Methyl-5,11-dioxo-6,11-dihydro-5H-indeno[1,2-c]isoquinoline-3-carboxamide] | inactive | – |
| Cc1ccc2c3c(n(C)c(=O)c2c1)-c1ccccc1C3=O [Compound 36, 3,6-Dimethyl-5H-indeno[1,2-c]isoquinoline-5,11(6H)-dione] | not active | – |
| Cn1c2c(c3ccc(C=O)cc3c1=O)C(=O)c1ccccc1-2 [Compound 37, 6-Methyl-5,11-dioxo-6,11-dihydro-5H-indeno[1,2-c]isoquinoline-3-carbaldehyde] | inactive | – |
| Cn1c2c(c3ccc(C#N)cc3c1=O)C(=O)c1ccccc1-2 [Compound 39, 3-Cyano-5,11-dihydro-6-methyl-5,11-dioxoindeno[1,2-c]isoquinoline] | inactive | – |
| Cn1c2c(c3ccc(NC(=O)C(=O)O)cc3c1=O)C(=O)c1ccccc1-2 [Compound 45] | inactive | – |
| COC(=O)c1ccc2c3c(n(CCCn4ccnc4)c(=O)c2c1)-c1ccccc1C3=O [Compound 68, Methyl 6-(3-(1H-Imidazol-1-yl)propyl)-5,11-dioxo-6,11-dihydro-5H-indeno[1,2-c]isoquinoline-3-carboxylate Hydrochloride] | inactive; also recorded: lack of activity | – |
| COC(=O)c1ccc2c3c(n(CCCN4CCOCC4)c(=O)c2c1)-c1ccccc1C3=O [Compound 69, Methyl 6-(3-Morpholinopropyl)-5,11-dioxo-6,11-dihydro-5H-indeno[1,2-c]isoquinoline-3-carboxylate] | inactive; also recorded: lack of activity | – |
| COC(=O)c1ccc2c3c(n(CCCN)c(=O)c2c1)-c1ccccc1C3=O.Cl [Compound 73, Methyl 6-(3-Aminopropyl)-5,11-dioxo-6,11-dihydro-5H-indeno[1,2-c]isoquinoline-3-carboxylate Hydrochloride] | – | NA (NA: Max IR not determined because IR < 2.) |

Now from value to molecule, other results behind:

| RXR activity in words (active / inactive) | Structure (SMILES) | Max IR: maximum induction ratio observed |
| --- | --- | --- |
| active | COC(=O)CC(=O)Nc1ccc2c3c(n(CCCN)c(=O)c2c1)-c1ccccc1C3=O [Compound 52] | – |
| active | NCCCn1c2c(c3ccc(NCC(=O)O)cc3c1=O)C(=O)c1ccccc1-2 [Compound 61] | – |
| active | COC(=O)c1ccc2c3c(n(CCCN(C)C)c(=O)c2c1)-c1ccccc1C3=O.Cl [Compound 70, Methyl 6-(3-(Dimethylamino)propyl)-5,11-dioxo-6,11-dihydro-5H-indeno[1,2-c]isoquinoline-3-carboxylate Hydrochloride] | – |
| lack of activity | Cl.NCCCn1c2c(c3ccc(C(=O)O)cc3c1=O)C(=O)c1ccccc1-2 [Compound 72, 6-(3-Aminopropyl)-5,11-dioxo-6,11-dihydro-5H-indeno[1,2-c]isoquinoline-3-carboxylic Acid Hydrochloride] | NA (NA: Max IR not determined because IR < 2.) |
| lack of activity | COC(=O)/C=C/c1ccc2c3c(n(CCCN)c(=O)c2c1)-c1ccccc1C3=O.Cl [Compound 87, (E)-Methyl 3-(6-(3-Aminopropyl)-5,11-dioxo-6,11-dihydro-5H-indeno[1,2-c]isoquinolin-3-yl)acrylate Hydrochloride] | NA (NA: Max IR not determined because IR < 2.) |
| inactive | O=C1c2ccccc2-c2c1c1ccc(Br)cc1c(=O)n2CCCn1ccnc1 [Compound 91, 3-Bromo-6-(3-(1H-imidazol-1-yl)propyl)-5,11-dioxo-6,11-dihydro-5H-indeno[1,2-c]isoquinoline] | – |
| inactive | O=C1c2ccccc2-c2c1c1ccc(Br)cc1c(=O)n2CCCN1CCOCC1 [Compound 92, 3-Bromo-6-(3-morpholinopropyl)-5,11-dioxo-6,11-dihydro-5H-indeno[1,2-c]isoquinoline] | NA (NA: Max IR not determined because IR < 2.) |
| active | CN(C)CCCn1c2c(c3ccc(Br)cc3c1=O)C(=O)c1ccccc1-2 [Compound 93, 3-Bromo-6-(3-(dimethylamino)propyl)-5,11-dioxo-6,11-dihydro-5H-indeno[1,2-c]isoquinoline] | – |
| inactive | O=C1c2ccccc2-c2c1c1ccc(Br)cc1c(=O)n2CCCO [Compound 94, 3-Bromo-5,6-dihydro-6(3-hydroxypropyl)-5,11-dioxo-indeno[1,2-c]isoquinoline] | – |
| active | CNCCCn1c2c(c3ccc(Br)cc3c1=O)C(=O)c1ccccc1-2 [Compound 95, 3-Bromo-5,6-dihydro-6-(3-N-methylaminopropyl)-5,11-dioxo-indeno[1,2-c]isoquinoline] | – |
| inactive | O=C(O)CCn1c2c(c3ccc(Br)cc3c1=O)C(=O)c1ccccc1-2 [Compound 97, Lithium 6(2-Carboxyethyl)-3-bromo-5,6-dihydro-5,11-dioxo-11H-indeno[1,2-c]isoquinoline] | NA (NA: Max IR not determined because IR < 2.) |
| inactive | O=C1c2ccccc2-c2c1c1ccccc1c(=O)n2CCCn1ccnc1 [Compound 102, 5,6-Dihydro-6-(3-imidazolyl-1-propyl)-5,11-dioxo-11H-indeno[1,2-c]isoquinoline] | NA (NA: Max IR not determined because IR < 2.) |
| active; also recorded: high activity | CN(C)CCCn1c2c(c3ccccc3c1=O)C(=O)c1ccccc1-2 [Compound 103, 5,6-Dihydro-6-(3-(dimethylamino)-1-propyl)-5,11-dioxo-11Hindeno[1,2-c]isoquinoline] | – |
| inactive | C[N+](C)(C)CCCn1c2c(c3ccccc3c1=O)C(=O)c1ccccc1-2.[I-] [Compound 104, 6-(3-(Trimethylammonium)propyl)-5H-indeno[1,2-c]isoquinoline-5,11(6H)-dione Iodide] | NA (NA: Max IR not determined because IR < 2.) |
| active; also recorded: high activity | CNCCCn1c2c(c3ccccc3c1=O)C(=O)c1ccccc1-2 [Compound 105, 6-(3-(Methylamino)propyl)-5H-indeno[1,2-c]isoquinoline-5,11(6H)-dione] | – |
| inactive | O=C(O)CCn1c2c(c3ccccc3c1=O)C(=O)c1ccccc1-2 [Compound 106, 3-(5,11-Dioxo-5H-indeno[1,2-c]isoquinolin-6(11H)-yl)propanoic Acid] | NA (NA: Max IR not determined because IR < 2.) |
| inactive | NC(=O)CCn1c2c(c3ccccc3c1=O)C(=O)c1ccccc1-2 [Compound 107, 3-(5,11-Dioxo-5H-indeno[1,2-c]isoquinolin-6(11H)-yl)propanamide] | NA (NA: Max IR not determined because IR < 2.) |
| inactive | COCCCn1c2c(c3ccccc3c1=O)C(=O)c1ccccc1-2 [Compound 108, 6-(3-Methoxypropyl)-5H-indeno[1,2-c]isoquinoline-5,11(6H)-dione] | – |
| inactive | CCCCn1c2c(c3ccccc3c1=O)C(=O)c1ccccc1-2 [Compound 109, 6-Butyl-5H-indeno[1,2-c]isoquinoline-5,11(6H)-dione] | – |
| detrimental for activity | CN(C)CCCn1c2c(c3ccc([N+](=O)[O-])cc3c1=O)C(=O)c1ccccc1-2 [Compound 113, 6-(3-(Dimethylamino)propyl)-3-nitro-5H-indeno[1,2-c]isoquinoline-5,11(6H)-dione] | NA (NA: Max IR not determined because IR < 2.) |
